{"source": "ChEMBL document CHEMBL4308841", "about": "“Synthesis, in vitro antiproliferative activity, and kinase inhibitory effects of pyrazole-containing diarylureas and diarylamides” (Eur J Med Chem, 2018)", "data": [{"system": "UACC-257", "test": "Growth inhibition of human UACC257 cells assessed as cell growth at 100 uM incubated for 48 hrs by sulforhodamine B assay relative to control", "type": "functional", "conditions": "UACC-257, 48 h, read-out: Activity", "units": {"growth at 100 µM": "%"}, "values": [{"smiles": "COc1cc(Cl)cc(-c2nn(-c3cccc(NC(=O)Nc4ccc(Cl)c(C(F)(F)F)c4)c3)cc2-c2ccncc2)c1", "growth at 100 µM": -86}]}, {"system": "SR", "test": "Growth inhibition of human SR cells assessed as cell growth at 1 uM incubated for 48 hrs by sulforhodamine B assay relative to control", "type": "functional", "conditions": "read-out: Activity", "units": {"growth at 1 µM": "%"}, "values": [{"smiles": "COc1cc(Cl)cc(-c2nn(-c3cccc(NC(=O)Nc4ccc(Cl)c(C(F)(F)F)c4)c3)cc2-c2ccncc2)c1", "growth at 1 µM": 53}]}, {"system": "OVCAR-4", "test": "Growth inhibition of human OVCAR4 cells assessed as cell growth at 0.01 uM incubated for 48 hrs by sulforhodamine B assay relative to control", "type": "functional", "conditions": "OVCAR-4, 48 h, read-out: Activity", "units": {"growth at 0.01 µM": "%"}, "values": [{"smiles": "COc1cc(Cl)cc(-c2nn(-c3cccc(NC(=O)Nc4ccc(Cl)c(C(F)(F)F)c4)c3)cc2-c2ccncc2)c1", "growth at 0.01 µM": 99}]}, {"system": "HOP-62", "test": "Growth inhibition of human HOP62 cells assessed as cell growth at 0.1 uM incubated for 48 hrs by sulforhodamine B assay relative to control", "type": "functional", "conditions": "HOP-62, 48 h, read-out: Activity", "units": {"growth at 0.1 µM": "%"}, "values": [{"smiles": "COc1cc(Cl)cc(-c2nn(-c3cccc(NC(=O)Nc4ccc(Cl)c(C(F)(F)F)c4)c3)cc2-c2ccncc2)c1", "growth at 0.1 µM": 104}]}, {"system": "HOP-62", "test": "(§1) Growth inhibition of human HOP62 cells incubated for 48 hrs by sulforhodamine B assay", "type": "functional, cell-based", "conditions": "HOP-62, 48 h, read-out: GI50", "units": {"GI50": "µM"}, "values": [{"smiles": "COc1cc(Cl)cc(-c2nn(-c3cccc(NC(=O)Nc4ccc(Cl)c(C(F)(F)F)c4)c3)cc2-c2ccncc2)c1", "GI50": 2.12}]}, {"system": "HOP-62", "test": "as §1", "type": "functional, cell-based", "conditions": "HOP-62, 48 h, read-out: LC50 (the source's name)", "units": {"CC50": "µM"}, "values": [{"smiles": "COc1cc(Cl)cc(-c2nn(-c3cccc(NC(=O)Nc4ccc(Cl)c(C(F)(F)F)c4)c3)cc2-c2ccncc2)c1", "CC50": "> 100"}]}, {"system": "HOP-62", "test": "as §1", "type": "functional, cell-based", "conditions": "HOP-62, 48 h, read-out: TGI", "units": {"TGI": "µM"}, "values": [{"smiles": "COc1cc(Cl)cc(-c2nn(-c3cccc(NC(=O)Nc4ccc(Cl)c(C(F)(F)F)c4)c3)cc2-c2ccncc2)c1", "TGI": 63.2}]}, {"system": "HOP-62", "test": "as §1", "type": "functional, cell-based", "conditions": "HOP-62, 48 h, read-out: pGI50 (converted)", "units": {"GI50": "µM"}, "values": [{"smiles": "COc1cc(Cl)cc(-c2nn(-c3cccc(NC(=O)Nc4ccc(Cl)c(C(F)(F)F)c4)c3)cc2-c2ccncc2)c1", "GI50": 2.14}]}, {"system": "HOP-62", "test": "as §1", "type": "functional, cell-based", "conditions": "HOP-62, 48 h, read-out: pLC50 (the source's name) (converted)", "units": {"CC50": "µM"}, "values": [{"smiles": "COc1cc(Cl)cc(-c2nn(-c3cccc(NC(=O)Nc4ccc(Cl)c(C(F)(F)F)c4)c3)cc2-c2ccncc2)c1", "CC50": "> 100"}]}, {"system": "HOP-62", "test": "as §1", "type": "functional, cell-based", "conditions": "HOP-62, 48 h, read-out: pTGI (converted)", "units": {"TGI": "µM"}, "values": [{"smiles": "COc1cc(Cl)cc(-c2nn(-c3cccc(NC(=O)Nc4ccc(Cl)c(C(F)(F)F)c4)c3)cc2-c2ccncc2)c1", "TGI": 6.31}]}, {"system": "T47D", "test": "(§2) Growth inhibition of human T47D cells incubated for 48 hrs by sulforhodamine B assay", "type": "functional, cell-based", "conditions": "read-out: GI50", "units": {"GI50": "µM"}, "values": [{"smiles": "COc1cc(Cl)cc(-c2nn(-c3cccc(NC(=O)Nc4ccc(Cl)c(C(F)(F)F)c4)c3)cc2-c2ccncc2)c1", "GI50": 1.25}]}, {"system": "T47D", "test": "as §2", "type": "functional, cell-based", "conditions": "read-out: LC50 (the source's name)", "units": {"CC50": "µM"}, "values": [{"smiles": "COc1cc(Cl)cc(-c2nn(-c3cccc(NC(=O)Nc4ccc(Cl)c(C(F)(F)F)c4)c3)cc2-c2ccncc2)c1", "CC50": "> 100"}]}, {"system": "T47D", "test": "as §2", "type": "functional, cell-based", "conditions": "read-out: TGI", "units": {"TGI": "µM"}, "values": [{"smiles": "COc1cc(Cl)cc(-c2nn(-c3cccc(NC(=O)Nc4ccc(Cl)c(C(F)(F)F)c4)c3)cc2-c2ccncc2)c1", "TGI": 80.2}]}, {"system": "T47D", "test": "as §2", "type": "functional, cell-based", "conditions": "read-out: pGI50 (converted)", "units": {"GI50": "µM"}, "values": [{"smiles": "COc1cc(Cl)cc(-c2nn(-c3cccc(NC(=O)Nc4ccc(Cl)c(C(F)(F)F)c4)c3)cc2-c2ccncc2)c1", "GI50": 1.26}]}, {"system": "T47D", "test": "as §2", "type": "functional, cell-based", "conditions": "read-out: pLC50 (the source's name) (converted)", "units": {"CC50": "µM"}, "values": [{"smiles": "COc1cc(Cl)cc(-c2nn(-c3cccc(NC(=O)Nc4ccc(Cl)c(C(F)(F)F)c4)c3)cc2-c2ccncc2)c1", "CC50": "> 100"}]}, {"system": "T47D", "test": "as §2", "type": "functional, cell-based", "conditions": "read-out: pTGI (converted)", "units": {"TGI": "µM"}, "values": [{"smiles": "COc1cc(Cl)cc(-c2nn(-c3cccc(NC(=O)Nc4ccc(Cl)c(C(F)(F)F)c4)c3)cc2-c2ccncc2)c1", "TGI": 7.94}]}, {"system": "ACHN", "test": "Growth inhibition of human ACHN cells assessed as cell growth at 1 uM incubated for 48 hrs by sulforhodamine B assay relative to control", "type": "functional", "conditions": "read-out: Activity", "units": {"growth at 1 µM": "%"}, "values": [{"smiles": "COc1cc(Cl)cc(-c2nn(-c3cccc(NC(=O)Nc4ccc(Cl)c(C(F)(F)F)c4)c3)cc2-c2ccncc2)c1", "growth at 1 µM": 45}]}, {"system": "TK-10", "test": "Growth inhibition of human TK10 cells assessed as cell growth at 10 uM incubated for 48 hrs by sulforhodamine B assay relative to control", "type": "functional", "conditions": "TK-10, 48 h, read-out: Activity", "units": {"growth at 10 µM": "%"}, "values": [{"smiles": "COc1cc(Cl)cc(-c2nn(-c3cccc(NC(=O)Nc4ccc(Cl)c(C(F)(F)F)c4)c3)cc2-c2ccncc2)c1", "growth at 10 µM": 37.5}]}, {"system": "SF-539", "test": "Growth inhibition of human SF539 cells assessed as cell growth at 0.01 uM incubated for 48 hrs by sulforhodamine B assay relative to control", "type": "functional", "conditions": "SF-539, 48 h, read-out: Activity", "units": {"growth at 0.01 µM": "%"}, "values": [{"smiles": "COc1cc(Cl)cc(-c2nn(-c3cccc(NC(=O)Nc4ccc(Cl)c(C(F)(F)F)c4)c3)cc2-c2ccncc2)c1", "growth at 0.01 µM": 96}]}, {"system": "SNB-19", "test": "Growth inhibition of human SNB19 cells assessed as cell growth at 0.1 uM incubated for 48 hrs by sulforhodamine B assay relative to control", "type": "functional", "conditions": "SNB-19, 48 h, read-out: Activity", "units": {"growth at 0.1 µM": "%"}, "values": [{"smiles": "COc1cc(Cl)cc(-c2nn(-c3cccc(NC(=O)Nc4ccc(Cl)c(C(F)(F)F)c4)c3)cc2-c2ccncc2)c1", "growth at 0.1 µM": 95}]}, {"system": "MDA-MB-468", "test": "Growth inhibition of human MDA-MB-468 cells assessed as cell growth at 1 uM incubated for 48 hrs by sulforhodamine B assay relative to control", "type": "functional", "conditions": "MDA-MB-468, 48 h, read-out: Activity", "units": {"growth at 1 µM": "%"}, "values": [{"smiles": "COc1cc(Cl)cc(-c2nn(-c3cccc(NC(=O)Nc4ccc(Cl)c(C(F)(F)F)c4)c3)cc2-c2ccncc2)c1", "growth at 1 µM": 50}]}, {"system": "HCT-116", "test": "(§3) Growth inhibition of human HCT116 cells incubated for 48 hrs by sulforhodamine B assay", "type": "functional, cell-based", "conditions": "HCT-116, 48 h", "units": {"IC50": "µM"}, "values": [{"smiles": "COc1cc(Cl)cc(-c2nn(-c3cccc(NC(=O)Nc4ccc(Cl)c(C(F)(F)F)c4)c3)cc2-c2ccncc2)c1", "IC50": 0.63}]}, {"system": "HCT-116", "test": "as §3", "type": "functional, cell-based", "conditions": "HCT-116, 48 h, read-out: GI50", "units": {"GI50": "µM"}, "values": [{"smiles": "COc1cc(Cl)cc(-c2nn(-c3cccc(NC(=O)Nc4ccc(Cl)c(C(F)(F)F)c4)c3)cc2-c2ccncc2)c1", "GI50": 0.631}]}, {"system": "HCT-116", "test": "as §3", "type": "functional, cell-based", "conditions": "HCT-116, 48 h, read-out: LC50 (the source's name)", "units": {"CC50": "µM"}, "values": [{"smiles": "COc1cc(Cl)cc(-c2nn(-c3cccc(NC(=O)Nc4ccc(Cl)c(C(F)(F)F)c4)c3)cc2-c2ccncc2)c1", "CC50": 7.3}]}, {"system": "HCT-116", "test": "as §3", "type": "functional, cell-based", "conditions": "HCT-116, 48 h, read-out: TGI", "units": {"TGI": "µM"}, "values": [{"smiles": "COc1cc(Cl)cc(-c2nn(-c3cccc(NC(=O)Nc4ccc(Cl)c(C(F)(F)F)c4)c3)cc2-c2ccncc2)c1", "TGI": 23.6}]}, {"system": "HCT-116", "test": "as §3", "type": "functional, cell-based", "conditions": "HCT-116, 48 h, read-out: pGI50 (converted)", "units": {"GI50": "µM"}, "values": [{"smiles": "COc1cc(Cl)cc(-c2nn(-c3cccc(NC(=O)Nc4ccc(Cl)c(C(F)(F)F)c4)c3)cc2-c2ccncc2)c1", "GI50": 0.631}]}, {"system": "HCT-116", "test": "as §3", "type": "functional, cell-based", "conditions": "HCT-116, 48 h, read-out: pLC50 (the source's name) (converted)", "units": {"CC50": "µM"}, "values": [{"smiles": "COc1cc(Cl)cc(-c2nn(-c3cccc(NC(=O)Nc4ccc(Cl)c(C(F)(F)F)c4)c3)cc2-c2ccncc2)c1", "CC50": 7.24}]}, {"system": "HCT-116", "test": "as §3", "type": "functional, cell-based", "conditions": "HCT-116, 48 h, read-out: pTGI (converted)", "units": {"TGI": "µM"}, "values": [{"smiles": "COc1cc(Cl)cc(-c2nn(-c3cccc(NC(=O)Nc4ccc(Cl)c(C(F)(F)F)c4)c3)cc2-c2ccncc2)c1", "TGI": 2.34}]}]}
